Test results reported in patent publication US20120003310A1 (priority 2009, published 2012).

Experiments:
[1] = per reference; cited from earlier work
[2] = Rasagiline citrate salt formation in solvents: extractable free rasagiline base (toluene extraction, TLC), pH, NMR equivalents; details: for Extracted R-PAI (%) / Extracted R-PAI (amount): free rasagiline base extracted or filtered from the citrate salt solution, solvent and mole proportions per example; for pH (after extraction of R-PAI): value in parentheses
Description: (§1) The combined toluenic extract was evaporated to dryness.
as §1

[3] = citrate salt of the drug substance, per reference; cited from earlier work
[4] = per reference; cited from earlier work; remark: listed apart in the source
[5] = Hygroscopicity: citrate salts exposed to atmospheric air in open dishes at ambient temperature; assay type: physicochemical; details: for Changes on exposure to atmosphere (appearance): open dish, ambient temperature
Description: (§2) The changes were observed and recorded.

[6] = Aqueous solubility of rasagiline base and rasagiline salts
[7] = Appearance of citrate salts stored in closed sealed glass vials in refrigerator at 7±2° C.; assay type: physicochemical; details: sealed glass vial, refrigerator 7±2° C.
Description: as §2

[8] = such as hexane, toluene and ethylacetate
[9] = AZILECT Product Label, May 2006; cited from earlier work
[10] = time of exposure 1:50-2:00 hrs:min

Compound: Tosylate
- Water solubility [1]: 60 to 70 mg/mL

Compound: C#CCN[C@@H]1CCc2ccccc21.O=C(O)CC(O)(CC(=O)O)C(=O)O [Example 19.7]
- Extracted R-PAI (%) [2]: (38.2%)
- Extracted R-PAI (amount) [2]: 3.92 g

Compound: C[C@@H]1CCCN1CCc1ccc2cc(-n3ncccc3=O)ccc2c1
- Polynorpb [3]: Crystalline

Compound: C#CCN[C@@H]1CCc2ccccc21.O=C(O)CC(O)(CC(=O)O)C(=O)O [Example 19.17]
- pH (after extraction of R-PAI) [2]: (3.41)

Compound: O=C(O)CC(O)(CC(=O)O)C(=O)O.c1cnc2cc3c(cc2n1)C1CNCC3C1
- Polynorpb [3]: Crystalline

Compound: Oxalate
- Hygroscopicity by KF [4]: Not hygroscopic

Compound: O=C(O)CC(O)(CC(=O)O)C(=O)O [citric acid]
- Hygroscopicity by KF [4]: low

Compound: rasagiline citrate
- hygroscopicity compared to rasagiline base and other rasagiline salts ([5]; Tables 22b and 22c): highest hygroscopicity
- water solubility compared to rasagiline base and other rasagiline salts ([6]; Tables 22b and 22c): highest water solubility

Compound: C#CCN[C@@H]1CCc2ccccc21.O=C(O)CC(O)(CC(=O)O)C(=O)O [Example 19.1]
- Extracted R-PAI (%) [2]: 1.75%
- Extracted R-PAI (amount) [2]: 0.06 g

Compound: C#CCN[C@@H]1CCc2ccccc21.C#CCN[C@@H]1CCc2ccccc21.O=C(O)CC(O)(CC(=O)O)C(=O)O [Example 4c]
- Appearance ([7]; storage 0 months): White powder
- Appearance ([7]; storage 3 months): White powder
- Appearance ([7]; storage 6 months): White powder
- Changes on exposure to atmosphere (appearance) ([5]; time of exposure 0:00 hrs:min): Powder
- Changes on exposure to atmosphere (appearance) ([5]; time of exposure 0:50-1:00 hrs:min): Powder
- Changes on exposure to atmosphere (appearance) ([5]; time of exposure 0:30 hrs:min): Powder
- Changes on exposure to atmosphere (appearance) [5, 10]: Powder
- Changes on exposure to atmosphere (appearance) ([5]; time of exposure 5:00 hrs:min): Lump powder

Compound: Phosphate
- Water solubility [1]: >=720 mg/ml

Compound: C#CCN[C@@H]1CCc2ccccc21.C#CCN[C@@H]1CCc2ccccc21.C#CCN[C@@H]1CCc2ccccc21.O=C(O)CC(O)(CC(=O)O)C(=O)O [Example 4d]
- Appearance ([7]; storage 0 months): White powder
- Appearance ([7]; storage 3 months): White powder
- Appearance ([7]; storage 6 months): White powder
- Changes on exposure to atmosphere (appearance) ([5]; time of exposure 0:00 hrs:min): Powder
- Changes on exposure to atmosphere (appearance) ([5]; time of exposure 0:30 hrs:min): Powder
- Changes on exposure to atmosphere (appearance) ([5]; time of exposure 5:00 hrs:min): Semi-solid
- Changes on exposure to atmosphere (appearance) ([5]; time of exposure 6:00 hrs:min): Semi-solid

Compound: C#CCN[C@@H]1CCc2ccccc21.C#CCN[C@@H]1CCc2ccccc21.O=S(=O)(O)CCS(=O)(=O)O [Edisilate]
- Hygroscopicity by KF [4]: Not hygroscopic

Compound: C#CCN[C@@H]1CCc2ccccc21.O=C(O)CC(O)(CC(=O)O)C(=O)O [Example 19.14]
- pH (after extraction of R-PAI) [2]: 3.49
- pH ([2]; value outside parentheses, before extraction of R-PAI): 3.53

Compound: N#Cc1ccc2[nH]c(O)c(-c3ccc(CN4CCOCC4)cn3)c2c1
- Polynorpb [3]: Crystalline

Compound: C[C@@H]1CCN(C(=O)CC#N)C[C@@H]1N(C)c1ncnc2[nH]ccc12
- Polynorpb [3]: Crystalline

Compound: Cc1[nH]c(C=C2C(=O)Nc3ccc(F)cc32)c(C)c1C(=O)NCCN1CCCC1
- Polynorpb [3]: Crystalline

Compound: C#CCN[C@@H]1CCc2ccccc21 [Solid R-PAI (Free Base)]
- Water solubility [1]: low
- Hygroscopicity by KF [4]: Not hygroscopic

Compound: C#CCN[C@@H]1CCc2ccccc21.O=C(O)CC(O)(CC(=O)O)C(=O)O [Example 19.6]
- Extracted R-PAI (%) [2]: (43.3%)
- Extracted R-PAI (amount) [2]: 4.44 g

Compound: Cc1ccc(NC(=O)c2ccc(CN3CCN(C)CC3)cc2)cc1Nc1nccc(-c2cccnc2)n1
- Polynorpb [3]: Crystalline

Compound: C#CCN[C@@H]1CCc2ccccc21 [Mesylate]
- Hygroscopicity by KF [4]: Not hygroscopic

Compound: C#CCN[C@@H]1CCc2ccccc21.O=C(O)CC(O)(CC(=O)O)C(=O)O [Example 19.13]
- Extracted R-PAI (%) [2]: (48%)
- Extracted R-PAI (amount) [2]: 2.47 g

Compound: C#CCN[C@@H]1CCc2ccccc21.CCS(=O)(=O)O [Esylate]
- Water solubility [1]: >=300 mg/ml

Compound: CN1CCN(c2ccccc2C=C2SCCN(c3ccc(Cl)c(Cl)c3)C2=O)CC1
- Polynorpb [3]: Crystalline

Compound: C#CCN[C@@H]1CCc2ccccc21 [rasagiline, R(+)-N-propargyl-1-aminoindan]
- solubility in non-polar organic solvents [8]: very soluble
- absolute bioavailability [9]: about 36%
- amount dissolving in aqueous reaction solution of citric acid [6]: more than 10 wt %

Compound: C#CCN[C@@H]1CCc2ccccc21.O=C(O)CC(O)(CC(=O)O)C(=O)O [Example 4b]
- Appearance ([7]; storage 0 months): White powder
- Appearance ([7]; storage 3 months): White powder
- Appearance ([7]; storage 6 months): White powder
- Changes on exposure to atmosphere (appearance) ([5]; time of exposure 0:00 hrs:min): Powder
- Changes on exposure to atmosphere (appearance) [5, 10]: Semi-solid
- Changes on exposure to atmosphere (appearance) ([5]; time of exposure 6:00 hrs:min): Syrup
- Changes on exposure to atmosphere (appearance) ([5]; time of exposure 7:00 hrs:min): Syrup

Compound: C#CCN[C@@H]1CCc2ccccc21.O=C(O)CC(O)(CC(=O)O)C(=O)O
- free rasagiline that may be extracted from the aqueous solution of the salt [2]: A few percent
- stability of the salt in solvents ([2]; aqueous and other solutions (alcohol, MEK, acetone)): stable in most solvents

Compound: C#CCN[C@@H]1CCc2ccccc21.O=C(O)CC(O)(CC(=O)O)C(=O)O [Example 19.4]
- Extracted R-PAI (%) [2]: (22%)
- Extracted R-PAI (amount) [2]: 1.51 g

Compound: Cl [Chloride]
- Hygroscopicity by KF [4]: Not hygroscopic
